Test results from the supplement of paper PMC6045584.
± gives the standard deviation of the averaged measurements.

Assays:
DASATINIB = compound: Cc1nc(Nc2ncc(C(=O)Nc3c(C)cccc3Cl)s2)cc(N2CCN(CCO)CC2)n1 [DASATINIB]; test: surviving fraction relative to DMSO-only wells; higher = less growth inhibition; conditions: exposure time: 5 days
In short: (§1)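 Tumour cell lines were grown to log phase and seeded at 250–500 cells per well in 384-well plates. They were exposed continuously to inhibitors at 0.5, 1, 5, 10, 50, 100, 500 and 1000 nM for five days, beginning 24 hours after seeding. Surviving fraction is CellTiter-Glo luminescence normalised to the median of DMSO-only wells.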

[1] = compound: COc1cc2ncnc(Nc3ccc(F)c(Cl)c3)c2cc1NC(=O)/C=C/CN1CCCCC1; test: as above; conditions: exposure time: 5 days
In short: as §1

Test System | surviving fraction (DASATINIB; 0.5 nM) | surviving fraction (DASATINIB; 1 nM) | surviving fraction (DASATINIB; 5 nM) | surviving fraction (DASATINIB; 10 nM) | surviving fraction (DASATINIB; 50 nM) | surviving fraction (DASATINIB; 100 nM) | surviving fraction (DASATINIB; 500 nM) | surviving fraction (DASATINIB; 1000 nM) | surviving fraction ([1]; 0.5 nM) | surviving fraction ([1]; 1 nM) | surviving fraction ([1]; 5 nM) | surviving fraction ([1]; 10 nM) | surviving fraction ([1]; 50 nM) | surviving fraction ([1]; 100 nM) | surviving fraction ([1]; 500 nM) | surviving fraction ([1]; 1000 nM)
SCC47 HEADNECK | 0.961 ± 0.073 | 0.965 ± 0.067 | 0.971 ± 0.065 | 0.9 ± 0.039 | 0.698 ± 0.0083 | 0.38 ± 0.027 | 0.078 ± 0.011 | 0.0587 ± 0.0074 | 0.927 ± 0.031 | 0.976 ± 0.041 | 0.804 ± 0.1 | 0.745 ± 0.028 | 0.625 ± 0.026 | 0.59 ± 0.025 | 0.512 ± 0.031 | 0.375 ± 0.039
SCC90 HEADNECK | 0.823 ± 0.081 | 0.868 ± 0.037 | 0.803 ± 0.071 | 0.85 ± 0.18 | 0.527 ± 0.05 | 0.542 ± 0.072 | 0.433 ± 0.095 | 0.468 ± 0.053 | 0.948 ± 0.041 | 0.938 ± 0.039 | 0.647 ± 0.1 | 0.608 ± 0.018 | 0.388 ± 0.017 | 0.4 ± 0.024 | 0.377 ± 0.066 | 0.294 ± 0.023
SG27 HEADNECK | 0.939 ± 0.12 | 1.01 ± 0.035 | 0.889 ± 0.15 | 0.736 ± 0.013 | 0.531 ± 0.0053 | 0.42 ± 0.038 | 0.35 ± 0.059 | 0.369 ± 0.064 | 1.06 ± 0.071 | 1.16 ± 0.22 | 0.944 ± 0.14 | 0.937 ± 0.07 | 0.927 ± 0.014 | 1.01 ± 0.061 | 0.988 ± 0.015 | 0.864 ± 0.024
SG28 HEADNECK | 0.749 ± 0.055 | 0.772 ± 0.04 | 0.687 ± 0.028 | 0.534 ± 0.087 | 0.439 ± 0.033 | 0.329 ± 0.018 | 0.213 ± 0.016 | 0.204 ± 0.032 | 0.962 ± 0.064 | 0.924 ± 0.058 | 0.626 ± 0.026 | 0.54 ± 0.013 | 0.514 ± 0.029 | 0.494 ± 0.025 | 0.375 ± 0.037 | 0.238 ± 0.019
SG31 HEADNECK | 0.892 ± 0.091 | 0.878 ± 0.19 | 0.722 ± 0.013 | 0.649 ± 0.081 | 0.535 ± 0.02 | 0.44 ± 0.042 | 0.391 ± 0.045 | 0.373 ± 0.016 | 0.973 ± 0.13 | 0.87 ± 0.19 | 0.617 ± 0.16 | 0.624 ± 0.086 | 0.556 ± 0.14 | 0.519 ± 0.07 | 0.486 ± 0.1 | 0.524 ± 0.021
SG32 HEADNECK | 0.606 ± 0.048 | 0.653 ± 0.14 | 0.564 ± 0.11 | 0.438 ± 0.06 | 0.395 ± 0.09 | 0.171 ± 0.037 | 0.155 ± 0.015 | 0.147 ± 0.022 | 1.24 ± 0.15 | 0.962 ± 0.098 | 0.846 ± 0.018 | 0.958 ± 0.046 | 0.819 ± 0.071 | 0.865 ± 0.029 | 0.695 ± 0.061 | 0.301 ± 0.034
SG43 HEADNECK | 0.98 ± 0.19 | 1.02 ± 0.16 | 0.592 ± 0.2 | 0.581 ± 0.2 | 0.337 ± 0.078 | 0.273 ± 0.13 | 0.206 ± 0.023 | 0.177 ± 0.054 | 0.807 ± 0.14 | 0.929 ± 0.044 | 0.529 ± 0.18 | 0.341 ± 0.057 | 0.199 ± 0.018 | 0.226 ± 0.022 | 0.281 ± 0.095 | 0.196 ± 0.057
SIHA CERVIX | 0.876 ± 0.016 | 0.806 ± 0.013 | 0.74 ± 0.026 | 0.742 ± 0.019 | 0.772 ± 0.046 | 0.648 ± 0.052 | 0.561 ± 0.0062 | 0.543 ± 0.027 | 1.05 ± 0.12 | 0.994 ± 0.043 | 1.02 ± 0.082 | 1.1 ± 0.074 | 1.04 ± 0.11 | 1.06 ± 0.11 | 0.862 ± 0.055 | 0.672 ± 0.067
SJSA1 BONE | 1.23 ± 0.065 | 1.14 ± 0.044 | 1.16 ± 0.19 | 1.24 ± 0.1 | 0.0427 ± 0.0032 | 1.6 ± 0.093 | 1.7 ± 0.029 | 0.174 ± 0.019 | 1.04 ± 0.071 | 1.08 ± 0.072 | 1.05 ± 0.053 | 1.09 ± 0.016 | 1.1 ± 0.043 | 1.14 ± 0.074 | 1.04 ± 0.072 | 1.01 ± 0.03
SKBR3 BREAST | 0.718 ± 0.024 | 0.802 ± 0.1 | 0.722 ± 0.097 | 0.822 ± 0.063 | 1.01 ± 0.093 | 1.1 ± 0.086 | 1.13 ± 0.12 | 0.942 ± 0.022 | 0.879 ± 0.038 | 0.983 ± 0.089 | 0.522 ± 0.041 | 0.471 ± 0.03 | 0.195 ± 0.0032 | 0.161 ± 0.017 | 0.145 ± 0.018 | 0.105 ± 0.018
SNU475 LIVER | 0.799 ± 0.0098 | 0.774 ± 0.018 | 0.602 ± 0.021 | 0.519 ± 0.036 | 0.469 ± 0.02 | 0.349 ± 0.021 | 0.242 ± 0.025 | 0.255 ± 0.032 | 0.967 ± 0.017 | 0.96 ± 0.017 | 0.92 ± 0.037 | 0.927 ± 0.086 | 0.897 ± 0.022 | 0.895 ± 0.05 | 0.698 ± 0.038 | 0.481 ± 0.028
SUM44 BREAST | 0.88 ± 0.035 | 0.824 ± 0.085 | 0.941 ± 0.062 | 0.865 ± 0.13 | 1.14 ± 0.23 | 1.12 ± 0.15 | 1.09 ± 0.13 | 0.99 ± 0.055 | 1.01 ± 0.028 | 1.03 ± 0.031 | 1.01 ± 0.05 | 1.01 ± 0.053 | 1.03 ± 0.06 | 1.07 ± 0.018 | 0.916 ± 0.044 | 0.727 ± 0.0096
SUM149 BREAST | 0.774 ± 0.058 | 0.817 ± 0.082 | 0.607 ± 0.043 | 0.563 ± 0.036 | 0.292 ± 0.018 | 0.252 ± 0.011 | 0.177 ± 0.02 | 0.174 ± 0.018 | 1.03 ± 0.095 | 1.03 ± 0.061 | 0.851 ± 0.04 | 0.747 ± 0.044 | 0.515 ± 0.056 | 0.395 ± 0.091 | 0.362 ± 0.013 | 0.341 ± 0.071
SUM149.B1*.S BREAST | 0.905 ± 0.034 | 0.879 ± 0.036 | 0.811 ± 0.024 | 0.75 ± 0.047 | 0.5 ± 0.018 | 0.358 ± 0.0082 | 0.332 ± 0.0043 | 0.353 ± 0.032 | 1.06 ± 0.066 | 1.03 ± 0.035 | 1.02 ± 0.02 | 1.03 ± 0.043 | 0.962 ± 0.026 | 0.977 ± 0.036 | 0.833 ± 0.026 | 0.914 ± 0.043
SUM159 BREAST | 0.948 ± 0.026 | 0.981 ± 0.011 | 0.955 ± 0.015 | 0.921 ± 0.022 | 0.907 ± 0.011 | 0.778 ± 0.048 | 0.59 ± 0.035 | 0.606 ± 0.055 | 1.08 ± 0.076 | 1.14 ± 0.16 | 1.1 ± 0.14 | 1.13 ± 0.2 | 1.06 ± 0.065 | 0.931 ± 0.14 | 1.01 ± 0.052 | 0.984 ± 0.017
SYO1 SYNOVIAL | 0.777 ± 0.024 | 0.758 ± 0.041 | 0.651 ± 0.03 | 0.566 ± 0.07 | 0.415 ± 0.02 | 0.383 ± 0.026 | 0.351 ± 0.011 | 0.34 ± 0.017 | 0.9794 ± 0.0088 | 0.993 ± 0.068 | 0.91 ± 0.023 | 0.929 ± 0.048 | 0.971 ± 0.055 | 0.974 ± 0.039 | 0.784 ± 0.018 | 0.422 ± 0.022
T47D BREAST | 0.937 ± 0.032 | 0.903 ± 0.043 | 0.903 ± 0.057 | 0.937 ± 0.042 | 1 ± 0.035 | 0.975 ± 0.042 | 0.964 ± 0.048 | 0.982 ± 0.061 | 1.03 ± 0.044 | 1.11 ± 0.045 | 1.07 ± 0.041 | 1.04 ± 0.027 | 1.043 ± 0.0096 | 1.07 ± 0.034 | 1.05 ± 0.05 | 1.02 ± 0.046
U2OS BONE | 0.951 ± 0.031 | 0.953 ± 0.022 | 0.957 ± 0.059 | 0.865 ± 0.051 | 0.8 ± 0.035 | 0.692 ± 0.021 | 0.514 ± 0.024 | 0.503 ± 0.006 | 1.03 ± 0.023 | 1.03 ± 0.025 | 1.02 ± 0.025 | 1.01 ± 0.038 | 1.04 ± 0.015 | 1.06 ± 0.027 | 0.906 ± 0.033 | 0.798 ± 0.034
VCAP PROSTATE | 0.856 ± 0.048 | 0.89 ± 0.014 | 0.923 ± 0.026 | 0.943 ± 0.091 | 1.01 ± 0.12 | 1.02 ± 0.11 | 1.02 ± 0.061 | 0.932 ± 0.062 | 0.95 ± 0.04 | 0.769 ± 0.036 | 0.967 ± 0.08 | 1.04 ± 0.12 | 1.04 ± 0.048 | 0.996 ± 0.14 | 0.725 ± 0.078 | 0.406 ± 0.025
VP229 BREAST | 0.813 ± 0.044 | 0.855 ± 0.081 | 0.708 ± 0.031 | 0.619 ± 0.027 | 0.467 ± 0.032 | 0.484 ± 0.0085 | 0.45 ± 0.031 | 0.484 ± 0.018 | 1.02 ± 0.1 | 1.18 ± 0.056 | 0.663 ± 0.12 | 0.638 ± 0.086 | 0.306 ± 0.011 | 0.287 ± 0.026 | 0.2307 ± 0.00058 | 0.191 ± 0.029
YAMATO SYNOVIAL | 0.822 ± 0.18 | 0.729 ± 0.097 | 0.836 ± 0.19 | 0.771 ± 0.2 | 0.848 ± 0.13 | 0.753 ± 0.11 | 0.63 ± 0.039 | 0.677 ± 0.074 | 1.23 ± 0.053 | 1.29 ± 0.18 | 1.3 ± 0.02 | 1.45 ± 0.17 | 1.31 ± 0.095 | 1.39 ± 0.068 | 1.31 ± 0.16 | 1.27 ± 0.077
ZR751 BREAST | 0.934 ± 0.066 | 0.965 ± 0.23 | 0.851 ± 0.098 | 0.835 ± 0.045 | 0.877 ± 0.12 | 0.852 ± 0.18 | 1 ± 0.14 | 0.922 ± 0.17 | 1.07 ± 0.11 | 0.919 ± 0.043 | 0.791 ± 0.018 | 0.859 ± 0.076 | 0.762 ± 0.095 | 0.768 ± 0.04 | 0.625 ± 0.056 | 0.415 ± 0.087
